In one series the target is T1, D(4) dopamine receptor (Homo sapiens, UniProt P21917).
T1 sequence (P21917 whole entry): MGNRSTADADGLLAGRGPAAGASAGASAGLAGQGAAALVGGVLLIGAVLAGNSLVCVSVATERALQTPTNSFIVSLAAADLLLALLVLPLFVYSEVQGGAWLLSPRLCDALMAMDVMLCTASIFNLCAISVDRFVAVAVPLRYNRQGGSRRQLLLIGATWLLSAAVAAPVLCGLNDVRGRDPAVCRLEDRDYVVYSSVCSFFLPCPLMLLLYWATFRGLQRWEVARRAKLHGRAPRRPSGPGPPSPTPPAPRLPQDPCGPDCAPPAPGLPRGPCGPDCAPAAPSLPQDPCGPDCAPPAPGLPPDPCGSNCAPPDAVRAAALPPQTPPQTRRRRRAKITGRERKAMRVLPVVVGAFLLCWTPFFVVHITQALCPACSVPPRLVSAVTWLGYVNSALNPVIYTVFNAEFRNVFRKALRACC
In words: biochemical.

The nature of series [1]: The compound was tested In Vitro for half life in human liver microsomes. It is filed as ADME, Microsome. (In general: Liver microsomes are vesicles of endoplasmic reticulum, rich in cytochrome P450 enzymes.)
Series [2] has as its system Rattus norvegicus. In words: in vivo for inhibition against hyperactivity induced by apomorphine (1.78 mg/kg) in habituated rats by oral administration. It counts as functional. Conditions: read-out: ID50 (the source's name).
For a further series, the target named is D(3) dopamine receptor (Homo sapiens, UniProt P35462). The series is described as follows: In vitro binding affinity against human D3 dopamine receptor in CHO cells using [3H]spiperone. It is filed as cell-based.
Sequence of D(3) dopamine receptor (P35462 whole entry): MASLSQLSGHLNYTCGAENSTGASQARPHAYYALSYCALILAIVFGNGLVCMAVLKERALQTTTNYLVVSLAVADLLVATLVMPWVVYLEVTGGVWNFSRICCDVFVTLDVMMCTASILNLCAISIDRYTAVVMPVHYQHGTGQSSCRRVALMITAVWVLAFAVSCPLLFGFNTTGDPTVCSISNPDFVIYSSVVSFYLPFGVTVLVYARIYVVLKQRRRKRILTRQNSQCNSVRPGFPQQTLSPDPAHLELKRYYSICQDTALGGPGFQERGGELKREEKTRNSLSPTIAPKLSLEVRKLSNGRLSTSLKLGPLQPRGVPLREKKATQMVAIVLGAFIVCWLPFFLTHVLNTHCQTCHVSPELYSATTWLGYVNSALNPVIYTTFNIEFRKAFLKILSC
Series [3] is described as follows: In vivo percentage mean absolute bioavailability of compound in rat after an oral dose of 10 mg/kg (in water, N=4). It counts as ADME, organism-based.
A short description of series [4]: In vivo half life of compound in rat plasma after a oral dose of 10 mg/kg (in water, N=4). It is filed as ADME, organism-based. The arrangement: dose 10 mg/kg, route oral.
In series [5] the test system is Rattus norvegicus. The series is described as follows: Compound was tested for antagonistic activity against APO-induced stereotypy in rats when administered po. It is filed as functional. Conditions: read-out: ID50 (the source's name).
The target in series [6] is 5-hydroxytryptamine receptor 2A (Homo sapiens, UniProt P28223). The series is described as follows: In vitro binding affinity against 5-hydroxytryptamine 2A receptor in CHO cells. It counts as cell-based.
Sequence of 5-hydroxytryptamine receptor 2A (P28223 whole entry): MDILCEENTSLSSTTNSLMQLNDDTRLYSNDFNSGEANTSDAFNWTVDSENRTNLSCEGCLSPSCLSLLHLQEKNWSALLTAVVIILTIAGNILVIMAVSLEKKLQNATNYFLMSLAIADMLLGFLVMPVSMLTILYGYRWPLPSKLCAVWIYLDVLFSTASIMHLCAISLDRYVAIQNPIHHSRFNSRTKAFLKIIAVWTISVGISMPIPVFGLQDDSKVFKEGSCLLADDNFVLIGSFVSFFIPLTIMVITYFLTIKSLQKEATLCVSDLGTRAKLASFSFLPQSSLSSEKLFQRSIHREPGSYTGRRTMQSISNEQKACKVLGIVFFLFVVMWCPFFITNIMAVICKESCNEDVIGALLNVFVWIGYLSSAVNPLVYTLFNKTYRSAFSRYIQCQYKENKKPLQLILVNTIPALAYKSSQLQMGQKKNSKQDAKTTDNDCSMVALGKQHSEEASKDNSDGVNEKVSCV
The nature of series [7]: In vivo maximum concentration of compound in rat plasma after a oral dose of 10 mg/kg (in water, N=4). It is filed as ADME, organism-based. Further details: dose 10 mg/kg, route oral.
In series [8] the test system is Rattus norvegicus. In words: in vivo for inhibition against hyperactivity induced by apomorphine (1.78 mg/kg) in habituated rats by subcutaneous administration. It counts as functional. Conditions: sc, read-out: ID50 (the source's name).
Series [9] deals with Rattus norvegicus. In words: Compound was tested for inhibition of APO-induced blockade of prepulse inhibition in rats when administered sc. It is filed as functional. Conditions: read-out: ID50 (the source's name).
The target of series [10] is T2, 5-hydroxytryptamine receptor 1A (Mus musculus, UniProt Q64264).
T2 sequence (Q64264 whole entry): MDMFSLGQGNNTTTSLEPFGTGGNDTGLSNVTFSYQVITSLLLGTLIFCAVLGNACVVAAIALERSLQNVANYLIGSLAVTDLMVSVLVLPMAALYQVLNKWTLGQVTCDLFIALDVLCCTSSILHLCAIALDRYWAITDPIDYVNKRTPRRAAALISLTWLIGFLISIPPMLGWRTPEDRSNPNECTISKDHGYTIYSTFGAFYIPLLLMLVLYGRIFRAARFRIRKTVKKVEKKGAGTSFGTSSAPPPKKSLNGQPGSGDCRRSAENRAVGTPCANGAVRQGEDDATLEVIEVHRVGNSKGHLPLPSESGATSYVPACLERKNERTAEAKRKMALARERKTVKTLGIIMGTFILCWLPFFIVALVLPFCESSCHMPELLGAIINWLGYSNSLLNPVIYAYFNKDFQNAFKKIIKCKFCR
In words: In vitro binding affinity against 5-hydroxytryptamine 1A receptor in CHO cells. It counts as cell-based.

Series [11] deals with Rattus norvegicus. In words: Compound was tested for spontaneous locomotor activity in nonhabituated rats when administered po. It is filed as functional. Conditions: read-out: ID50 (the source's name).

pIC50, pKi: −log10 of the molar value. Some results are limits rather than exact numbers.

Broadly, the pKi is the Ki on a negative log10 scale, so that one unit is a factor of ten. A high value points to a low Ki. One may read the half-life as the time in which the quantity being followed falls by half. Higher therefore signals slow decline. As a reminder, the bioavailability is the share of a dose that reaches the circulation, judged against a reference dose that is usually intravenous. A lower bioavailability goes with poor availability. As a reminder, the pIC50 is the IC50 on a negative log10 scale, so that one unit is a factor of ten. What is called Cmax is the maximum level reached in the sampled fluid or tissue.

Description for D(4) dopamine receptor: In vitro binding affinity at human D4 dopamine receptor in CHO cells by [3H]spiperone displacement.

On to `Fc1ccc(OC[C@@H]2CC[C@H]3CN(c4ccc(F)cc4)CCN3C2)cc1`, for which, at D(4) dopamine receptor, the pKi was 8.28.

On to `Fc1ccc(OC[C@@H]2CC[C@@H]3CN(c4ncc(F)cn4)CCN3C2)cc1`, for which the pKi at D(4) dopamine receptor was 7.41.

`COC(=O)c1ccc(OC[C@@H]2CC[C@H]3CN(c4ncccn4)CCN3C2)cc1` showed a pKi at D(4) dopamine receptor of 6.90.

For `Fc1ccc(OC[C@H]2CC[C@@H]3CN(c4ncc(F)cn4)CCN3C2)cc1`, on D(4) dopamine receptor, the pKi was 6.97.

`COc1ccc(OC[C@@H]2CC[C@H]3CN(c4ncccn4)CCN3C2)cc1` showed a pKi on D(4) dopamine receptor of 7.74.

For `Fc1ccc(OC[C@H]2CC[C@H]3CN(c4ncc(F)cn4)CCN3C2)cc1`, the pKi on D(4) dopamine receptor is 8.70.

Molecule `c1ccc(OC[C@@H]2CC[C@H]3CN(c4ccccc4)CCN3C2)cc1` gave a pKi at D(4) dopamine receptor of 8.80.

Molecule `c1ccc(OC[C@H]2CC[C@H]3CN(c4ncccn4)CCN3C2)cc1` (stereo in doubt; 3a) showed a pKi at D(4) dopamine receptor of 8.39.

For the molecule `Fc1ccc(OC[C@@H]2CC[C@H]3CN(c4ccc(Cl)cn4)CCN3C2)cc1`, at D(4) dopamine receptor, the pKi is 8.49.

`c1ccc(OC[C@@H]2CC[C@H]3CN(c4ncccn4)CCN3C2)cc1` had a pKi at D(4) dopamine receptor of 8.46. Moreover, the half-life in [1] stood at 3 min.

Molecule `c1ccc(OC[C@H]2CC[C@H]3CN(c4ncccn4)CCN3C2)cc1` (stereo in doubt; 3b) gave a pKi at D(4) dopamine receptor of 8.77.

Take `Fc1ccc(OC[C@@H]2CC[C@H]3CN(c4ncc(F)cn4)CCN3C2)cc1`: the ED50 with Rattus norvegicus [2] was 13.3 mg/kg; in the series with Rattus norvegicus [5], greater than 56 mg/kg; with Rattus norvegicus [8], 10 mg/kg; in the series on Rattus norvegicus [9], 17.8 mg/kg; in the series on Rattus norvegicus [11] it was greater than 56 mg/kg. Moreover, the pKi is less than 5.70 on D(3) dopamine receptor and 8.47 at D(4) dopamine receptor. This molecule registered a bioavailability in [3] of 93%. The half-life in [4] was 270 min; in series [1], 12.2 min. For the same molecule, the pIC50 in [6] was 6.82; in [10], 6.74. For the same molecule, in series [7], the Cmax is 730 ng/mL.

`CC(=O)Nc1ccc(OC[C@@H]2CC[C@H]3CN(c4ncccn4)CCN3C2)cc1` gave a pKi at D(4) dopamine receptor of 6.50.

With `CC(C)(C)c1ccc(OC[C@@H]2CC[C@H]3CN(c4ncccn4)CCN3C2)cc1`, the pKi on D(4) dopamine receptor is 7.70.

Molecule `c1ccc(OCC2CCC3CN(c4ncccn4)CCN3C2)cc1` (stereo unspecified) gave a pKi at D(4) dopamine receptor of 8.42.

Take `Fc1ccc(OC[C@@H]2CC[C@H]3CN(c4ncccn4)CCN3C2)cc1`: the pKi on D(4) dopamine receptor was 8.55. Moreover, the half-life in series [1] is 3.6 min.

`c1ccc(OC[C@@H]2CC[C@H]3CN(c4ccccn4)CCN3C2)cc1` showed a pKi on D(4) dopamine receptor of 8.77.

Values taken from ChEMBL document CHEMBL1131659, “Synthesis, SAR and pharmacology of CP-293,019: a potent, selective dopamine D4 receptor antagonist” (Bioorg Med Chem Lett, 1998).
